Data on 5 compounds can be found in PMC6470533, “Structure–Activity Study, Characterization, and Mechanism of Action of an Antimicrobial Peptoid D2 and Its D- and L-Peptide Analogues” (Molecules, 2019).

The subject of one data set is S. aureus. Also on record: method as in PMID 28262682. Particulars: cited from earlier work.
Data set [1] relates to Methicillin sensitive Staphylococcus pseudintermedius (26916). The data set is classed as cell-based. Particulars: 18 h.
In data set [2] the test system is Methicillin resistant Staphylococcus pseudintermedius, (C22963). It is filed as cell-based. To be noted: 18 h.
The test system of data set [3] is Staphylococcus aureus (ATCC 29213). It is filed as cell-based. To be noted: ATCC 29213, 18 h.
For data set [4], the system named is Pseudomonas aeruginosa (ATCC 27853). The data set is classed as cell-based. Particulars: ATCC 27853, 18 h. The protocol: To explore the antimicrobial activity of the library of peptides and peptidomimetics, they were tested against Acinetobacter baumannii, Corynebacterium auriscanis, Escherichia coli, Enterococcus faecalis, Enterococcus faecium, Klebsiella pneumonia, Proteus mirabilis, and Pseudomonas aeruginosa. Bacteria grown on agar plates for 18 h at 37 °C were diluted to ~1 × 10^8 CFU/mL in Mueller–Hinton broth (MHB). Two-fold serial dilutions of peptides and peptidomimetics in MHB II were inoculated with bacteria to achieve a final concentration of 5 × 10^5 CFU/mL in polypropylene 96 U-well microtiter plates (Almeco, Esbjerg, Denmark), followed by incubation at 37 °C in ambient air for 18 h. The MIC values were determined as the lowest concentration showing no visible bacterial growth. Experiments were performed twice (in technical triplicates) on two different days.

Data set [5] relates to DNA synthesis in MRSP E104. As to the kind of experiment: Macromolecule biosynthesis assay, DNA (3H-thymidine). It is filed as cell-based, Staphylococcus pseudintermedius. To be noted: 0.5× MIC, 20 min incubation, MRSP E104, 3H-thymidine; means of two experiments. The protocol:
(§1) The effect on DNA and cell wall synthesis was investigated after 20 min of incubation of MRSP E104 with the precursors ^3H-thymidine and ^3H-glucosamine hydrochloride, respectively, as previously reported by Ling et al.. Following macromolecule precipitation, radioactivity was counted using scintillation fluid. Incorporation of ^3H- or ^14C-labeled thymidine has been used to investigate DNA replication and transcriptional activity during the cell cycle; ^3H-glucosamine hydrochloride has been used in a mode of action study for the antimicrobial peptide plectasin, which targets the cell wall precursor lipid II [44].
(§2) Macromolecules (DNA and cell wall) biosynthesis rates were measured using strain MRSP E104 following a protocol adapted from Ling et al.. Briefly, overnight culture of E104 was diluted 1:100 in MHB and freshly grown up to OD 0.2 at 600 nm. Grown cells were pelleted down by centrifugation and then resuspended in fresh MHB medium followed by incubation for 20 min on a dry heat-bath with D2 or analogues or nisin and radiolabeled precursor: (50 µCi) ^3H-Thymidine (PerkinElmer) and (5 µCi) ^3H-glucosamine hydrochloride per mL for DNA and cell wall, respectively. A positive control without antimicrobials was maintained that corresponds to 100% synthesis rate. After 20 min of incubation, samples were precipitated with equal volume of cold 30% trichloroactic acid (TCA Sigma, Søborg, Denmark) on ice. After 15 to 30 min of incubation on ice, precipitates were filtered on a membrane filter and subsequently washed twice with cold 15% TCA and twice with cold water using a vacuum manifold. Next, filters were air dried overnight and then moved to 10 mL scintillation vials. Finally, 3 mL scintillation fluid was added to each vial and ^3H count was taken in Beckman Coulter LS6500 liquid scintillation counter for 1 min. The radioactive counts of the control samples with no antimicrobial exposure were considered to have 100% precursor incorporation and macromolecule synthesis. The percentage rates of macromolecule synthesis in the antimicrobial-exposed samples were calculated compared to control. Each experiment was performed twice with a technical replicate, and the average rates of synthesis were plotted.

Data set [6] deals with cell wall synthesis in MRSP E104. As to the kind of experiment: Macromolecule biosynthesis assay, cell wall (3H-glucosamine hydrochloride). It is filed as cell-based, Staphylococcus pseudintermedius. To be noted: 0.5× MIC, 20 min incubation, MRSP E104, 3H-glucosamine hydrochloride; means of two experiments. The method, then: as §1, §2
Data set [7] relates to membrane proton motive force of E104 cells. As to the kind of experiment: DiSC3(5) fluorescence, membrane depolarization. It is filed as cell-based, Staphylococcus pseudintermedius. Particulars: 0.5× MIC, n = 2. The text has this: In this study, the DiSC3(5) probe was used to assess the effect of D2 and its structural analogues D2L, D2D, and D2R on cytoplasmic membrane depolarization. DiSC3(5) is a cationic carbocyanine dye, which accumulates on negatively charged membrane, translocates into lipid membrane with a distribution dependent on plasma and mitochondrial membrane potential. Altered emission profile of DiSC3(5) measured via fluorescence spectroscopy indicates membrane depolarization caused by proton motive force dissipation, ATP production and/or pore formation. The increment of DiSC3(5) fluorescence of labeled cells resulting from its leakage upon addition of antimicrobial agents is usually measured over time. The protonophore carbonyl cyanide metachlorophenyl hydrazone (CCCP) is used as positive control, which rapidly dissipates PMF increasing proton permeability, alters both membrane proton gradient and transmembrane electric potential and decreases cellular ATP content. Based on the MIC and growth analysis results, sub-lethal concentrations of D2 and selected analogues were chosen to perform DiSC3(5) fluorescence and macromolecule biosynthesis studies.
Freshly grown E104 cells with OD 0.2 at 600 nm were labeled with 1 µM 3,3-dipropylthiadicarbocyanine iodide [DiSC3(5)] (Sigma-Aldrich, Søborg, Denmark) in MHB. The fluorescence spectra of fluorophore-labeled cells were plotted using the LS-50B luminescence spectrometer (PerkinElmer, Waltham, MA, USA) at excitation/emission wavelengths 546 nm/573 nm using time drive application of FLWINLAB software. After reading initial stable emission spectra of DiSC3(5), labeled cells were exposed with D2 or analogues or nisin or protonophore CCCP by directly injecting the concentrated solution of agent to the cuvette, and the change of fluorescence over time was recorded until emission spectra reached to stability. The increment of DiSC3(5) fluorescence upon addition of antimicrobials or CCCP (FUafter-exposure – FUbefore-exposure) was calculated and plotted in addition to raw fluorescence spectra. Experiment was performed twice and average fluorescence change was plotted with standard deviation.

The test system of the next data set is MRSP ST71 strain E104. As to the kind of experiment: Growth curve analysis (BioScreen). It is filed as cell-based, Staphylococcus pseudintermedius. Particulars: at the MIC, MRSP E104, OD600, 6 h, 37 °C. The method, then:
First, we performed growth curve analysis using the well-characterized MRSP ST71 strain E104, which is resistant to a number of antibiotics. […] A well-characterized antimicrobial peptide, nisin, was used as control. […] Increased concentrations of nisin inhibited proportionally the growth of E104, both at sub-MIC and MIC concentrations.
The effect of D2 or analogues or nisin on the growth of MRSP strain E104 was evaluated using BioScreen (Oy Growth Curves Ab LTd, Helsinki, Finland). Freshly grown culture of E104 was diluted to OD 0.2 at 600 nm, supplemented with increased concentration of antimicrobials and distributed in a 100 well honeycomb micro-plate with volume 100 μL. The plate was incubated for 6 h at 37 °C with continuous shaking. The OD600 of each micro-culture was measured and recorded every 15 min after a 5 s pause of shaking in automatic mode. Recorded OD was plotted against time to prepare the growth curves. Experiment was performed twice and one representative result was presented.

A further data set concerns red blood cell (RBC). To be noted: 0.5% RBC suspension in PBS, 1 h, 37 °C, read at 414 nm, normalized to mellitin and PBS, triplicates.

In brackets after ≈: the same amount, converted by molar mass. Non-standard residues stand in square brackets, D forms with d. Residues, ends and D or L forms follow the SMILES beside them. No end group written: not given here. N(1-naphthylmethyl)Gly = O=C(O)CNCc1cccc2ccccc12; 1Nal = N[C@@H](Cc1cccc2ccccc12)C(=O)O; N(4-MeBn)Gly = Cc1ccc(CNCC(=O)O)cc1; Nle = CCCC[C@H](N)C(=O)O; Nlys = NCCCCNCC(=O)O

Description for red blood cell (RBC): Briefly, 75 µL of peptide in PBS was mixed with 75 µL of a 0.5% red blood cell (RBC) suspension in PBS, and incubated for 1 h at 37 °C. The hemoglobin release was then measured at 414 nm and normalized, using mellitin as positive control and PBS as negative control. Experiments were done in triplicates.

With KLKLLLLLKLK-NH2, the “antimicrobial activity (MIC) against S. aureus” value in the data set with S. aureus was 16 µg/mL.
On to `CCCC[C@H](NC(=O)[C@H](CCCCN)NC(=O)[C@H](Cc1cccc2ccccc12)NC(=O)[C@H](CCCCN)NC(=O)[C@H](Cc1ccccc1)NC(=O)[C@H](Cc1cccc2ccccc12)NC(=O)[C@H](CCCCN)NC(=O)[C@@H](N)CCCCN)C(N)=O` [D2L] (H-KK[1Nal]FK[1Nal]K[Nle]-NH2; N-terminus assumed), for which the “MIC MSSP” value in data set [1] was determined as 16 µg/mL (≈ 13.5 µM). Moreover, in data set [2], the “MIC MRSP” value amounted to 8 µg/mL (≈ 6.75 µM). Also, the “MIC SA” value in [3] came to 32 µg/mL (≈ 27 µM). The “MIC PA” value in data set [4] is given as 16 µg/mL (≈ 13.5 µM). Also, the “inhibition of DNA biosynthesis rate” value in data set [5] is reported as 17%. Moreover, the “effect on (inhibition of) cell wall synthesis” value in [6] worked out at 31%. The “effect on PMF (membrane depolarization, DiSC3(5) fluorescence)” value (shortened to “effect on PMF”) in data set [7] is reported as “strongest effect on PMF”. In addition, the “growth curve, change of cell optical density over time” value in the data set with MRSP ST71 strain E104 is reported as “cell lysis”. In the data set with red blood cell (RBC), the “HA, percentage of hemolysis at 150 µM” value came to 35%.
Consider “nisin (ITSISLCTPGCKTGALMGCNMKTATCHCSIHVSK; also: lantibiotic: lanthionine rings and dehydro residues, places not given here; UniProt P13068 24-57, looked up) [well-characterized antimicrobial peptide used as control, reference compound]”, for which the “inhibition of DNA biosynthesis rate” value in [5] came out at 45%. In addition, the “effect on PMF” value in data set [7] is given as “does not have any effect on PMF”.
As for `CCCC[C@H](N)C(=O)N[C@@H](CCCCN)C(=O)N[C@@H](Cc1cccc2ccccc12)C(=O)N[C@@H](CCCCN)C(=O)N[C@@H](Cc1ccccc1)C(=O)N[C@@H](Cc1cccc2ccccc12)C(=O)N[C@@H](CCCCN)C(=O)N[C@@H](CCCCN)C(N)=O` [D2R] (H-[Nle]K[1Nal]KF[1Nal]KK-NH2; N-terminus assumed), the “MIC MSSP” value in data set [1] is 16 µg/mL (≈ 13.5 µM). Moreover, the “MIC MRSP” value in data set [2] came to 4 µg/mL (≈ 3.38 µM). Moreover, the “MIC SA” value in data set [3] stood at 32 µg/mL (≈ 27 µM). The “MIC PA” value in data set [4] fell in the range of 32 to 64 µg/mL. In data set [5], the “inhibition of DNA biosynthesis rate” value was < 5%. In data set [6], the “effect on (inhibition of) cell wall synthesis” value is recorded as 22%. Besides, in [7], the “effect on PMF” value is listed as “strongest effect on PMF”. The “growth curve, change of cell optical density over time” value with MRSP ST71 strain E104 is reported as “cell lysis”. Besides, the “HA, percentage of hemolysis at 150 µM” value in the data set with red blood cell (RBC) was found to be 23%.
In the case of `Cc1ccc(CN(CC(=O)N(CCCCN)CC(=O)N(CC(=O)N(CCCCN)CC(=O)NCC(N)=O)Cc2cccc3ccccc23)C(=O)CN(Cc2cccc3ccccc23)C(=O)CN(CCCCN)C(=O)CNCCCCN)cc1` [compound 8] (H-[Nlys][Nlys][N(1-naphthylmethyl)Gly][N(4-MeBn)Gly][Nlys][N(1-naphthylmethyl)Gly][Nlys]G-NH2; N-terminus assumed), the “MIC MSSP” value in [1] is on record as 8 µg/mL (≈ 7 µM). Also, in data set [2], the “MIC MRSP” value is listed as 8 µg/mL (≈ 7 µM). Also, the “MIC SA” value in data set [3] is recorded as 32 µg/mL (≈ 28 µM). For the same compound, the “MIC PA” value in data set [4] is 32 to 64 µg/mL. The “HA, percentage of hemolysis at 150 µM” value in the data set with red blood cell (RBC) was determined as 49%.
